Values quoted from earlier work in US7799547B2, “Purified polypeptides from Staphylococcus aureus” (Affinium Pharmaceuticals, Inc., priority 2003, dated 2010).

Legend:
[1] = system: panel of clinical isolates of S. aureus; conditions: clinical isolates of S. aureus resistant to different classes of antibiotics
MRSA strain WCUH29 = conditions: rat, oral administration at 50 mg/kg
S. aureus FabI = S. aureus FabI (Staphylococcus aureus, UniProt Q6GI75)
E. coli FabI = E. coli FabI (Escherichia coli, UniProt P0AEK4)
Sequence of E. coli FabI (P0AEK4 whole entry): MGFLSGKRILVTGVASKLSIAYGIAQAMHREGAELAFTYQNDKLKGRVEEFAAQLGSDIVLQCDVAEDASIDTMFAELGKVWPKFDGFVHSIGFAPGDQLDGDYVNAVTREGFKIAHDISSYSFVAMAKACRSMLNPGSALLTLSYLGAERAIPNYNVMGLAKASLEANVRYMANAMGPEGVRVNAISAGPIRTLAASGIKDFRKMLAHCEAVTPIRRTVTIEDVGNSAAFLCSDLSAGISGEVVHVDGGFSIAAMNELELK

Sequence of S. aureus FabI (Q6GI75 whole entry): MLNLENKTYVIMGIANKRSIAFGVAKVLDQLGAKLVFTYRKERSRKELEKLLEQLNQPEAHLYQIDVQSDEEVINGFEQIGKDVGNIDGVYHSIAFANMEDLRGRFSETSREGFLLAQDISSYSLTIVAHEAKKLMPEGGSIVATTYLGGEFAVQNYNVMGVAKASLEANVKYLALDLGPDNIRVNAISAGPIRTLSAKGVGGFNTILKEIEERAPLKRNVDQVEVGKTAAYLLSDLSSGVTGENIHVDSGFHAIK

| Structure (SMILES) | MIC90 fold lower than those of the commercial antibiotics tested [1] [fold] | Reduction in bacterial counts relative to untreated controls (MRSA strain WCUH29) [log] | Inhibition of S. aureus FabI (S. aureus FabI) | Inhibition of E. coli FabI (E. coli FabI) |
| --- | --- | --- | --- | --- |
| Cc1[nH]c2ccccc2c1CN(C)C(=O)/C=C/c1cnc2c(c1)CCC(=O)N2 [API-1135] | > 500 | 3.5 |  |  |
| Oc1c(Cl)cc(Cl)c(Cl)c1Cc1c(O)c(Cl)cc(Cl)c1Cl [hexachlorophene] |  |  | inhibited | inhibited |
| Oc1cc(Cl)ccc1Oc1ccc(Cl)cc1Cl [triclosan] |  |  | inhibited | inhibited |
